Assay results published in EP1599197B1, “THE USE OF ANTIMUSCARINIC DRUGS” (FAPESP-Fundacao de Amparo a Pesquisa do Estado de SP, priority 2003, dated 2004).

Columns and labels:
[1] = tested on: Wistar, adult, male, rats; assay: pilocarpine model of epilepsy: video monitoring of spontaneous epileptic seizures after status epilepticus; type: in vivo
Excerpt: The current invention was based on an experimental model of epilepsy in which in rats the induction of a brain lesion is accomplished through the administration of pilocarpine, a cholinergic agonist. According to the original description of this model, approximately 20-30 days after pilocarpine injection in either rats or mice, there is the onset of spontaneous recurrent epileptic seizures (Turski WA, Cavalheiro EA, Schwarz M, Czuczwar SJ, Kleinrok Z and Turski L. Limbic seizures produced by pilocarpine in rats: behavioural, electroencephalographic and neuropathological study. Behavioral Brain Research, 9:315-335, 1983; Mello LEAM, Cavalheiro EA, Babb TL, Kupfer WR, Pretorius JK, Tan AM and Finch. DM. Circuit mechanisms of seizures in the pilocarpine model of chronic epilepsy: cell loss and mossy fiber sprouting. Epilepsia 34:985-995, 1993). Due to its special features the pilocarpine model is currently one of the 3 most widely used experimental models in the study of epilepsy.
(§1) Biperiden, together with atropine, is a classic cholinergic antagonist and is known to block muscarinic receptors. These drugs are known by their abilities in blocking the cholinergic transmission which is otherwise mediated through muscarinic receptors. For our experiments we used Wistar, adult, male, rats which were maintained under controled conditions of temperature, light/dark cylces and kept in groups of up to 6 animals in polypropilene boxes with free access to tap water and rat chow pellets. Rats were subject to the intraperitoneal administration of pilocarpine in a dose of 320 mg/Kg for the induction of status epilepticus.
As expected, the systemic administration of pilocarpine lead to a sequence of behavioral alterations such as akinesia, body tremor and/or myoclonic jerks of the head and oro-facial stereotyped movements accompained by profuse salivation. Status epilepticus, a condition of uninterrupt epileptic seizure, developed on average 19 ± 5 min after the injetion of pilocarpine. Three hours after the onset of status epilepticus the animals in the experimental group (n=10) were intraperitoneally injected with the first initial dose of biperiden (8 mg/kg). This dose represents the concentration needed to provoke memory impairments in rodents (Roldan G, Bolanos-Badillo E, Gonzales-Sanches H, Quirarte GL and Prado-Alcala RA JW. Selective M1 muscarinic receptor antagonists disrupt memory consolidation of inhibitory avoidance in rats. Neurosci. Lett., 230:93-6, 1997).
For the animals in the control group (n=6), […] after the onset of status epileticus, administration of sterile saline solution (0.9% NaCl), rather than biperiden, was started with a similar protocol.
In the pilocarpine model of epilepsy, a few weeks after the administration of pilocarpine and the induction of status epilepticus, the animals develop spontaneous epileptic seizures which reccur for as long as the animal are allowed to live. […]
Approximately 15 to 20 days after the induction of status epilepticus, the reported duration of the latent period for the onset of spontaneous seizures, monitoring of the behavioral seizures with a videocamera for approximately 12 hours/week was initiated. […] Animals were video monitored for approximately 120 days after the induction of status epilepticus. The recorded video tapes were routinelly assessed in a 29 inches wide television screen and the seizures observed for each animal were recorded.

[2] = tested on: Wistar, adult, male, rats; assay: induction of status epilepticus by systemic pilocarpine; type: in vivo; conditions: pilocarpine 320 mg/Kg intraperitoneal, average
Excerpt: as §1
As expected, the systemic administration of pilocarpine lead to a sequence of behavioral alterations such as akinesia, body tremor and/or myoclonic jerks of the head and oro-facial stereotyped movements accompained by profuse salivation. Status epilepticus, a condition of uninterrupt epileptic seizure, developed on average 19 ± 5 min after the injetion of pilocarpine. Three hours after the onset of status epilepticus the animals in the experimental group (n=10) were intraperitoneally injected with the first initial dose of biperiden (8 mg/kg). […]

SMILES	qualitative or quantitative nature of each individual seizure, biperiden-treated vs control group ([1]; comparison between the two groups)	onset of spontaneous recurrent seizures after prophylactic use following pilocarpine lesion ([1]; prophylactic use after pilocarpine lesion, vs animals not treated with biperiden)	mean frequency of spontaneous epileptic seizures, control group relative to experimental group (treated with biperiden) ([1]; ratio control / biperiden-treated group, Table 2) [times higher]	Spontaneous seizures/h ([1]; rats, pilocarpine 320 mg/Kg i.p., biperiden 8 mg/kg i.p. every 8 hours for 10 days, n=10, video monitored about 120 days, mean ± standard deviation, p < 0.02 vs control (0.0401 ± 0.0113)) [seizures/h]	Latency (weeks): length of the latent period for the onset of the first recorded spontaneous epileptic seizure ([1]; rats, pilocarpine 320 mg/Kg i.p., biperiden 8 mg/kg i.p. starting 3 h after onset of status epilepticus, every 8 hours for 10 days, n=10, mean ± standard deviation, p < 0.03 vs control (3.2 ± 1.1)) [weeks]	time to development of status epilepticus after the injection of pilocarpine [2] [min]
OC(CCN1CCCCC1)(c1ccccc1)C1CC2C=CC1C2 (stereo not drawn) [biperiden]	no differences	significantly retarded or even supressed the onset of spontaneous recurrent seizures	2	0.0202 ± 0.0047	6.0 ± 1.1	–
CC[C@@H]1C(=O)OC[C@@H]1Cc1cncn1C [pilocarpine]	–	–	–	–	–	19 ± 5
